# Results from US20090047246A1, “NOVEL INHIBITORS OF HEPATITIS C VIRUS REPLICATION” (InterMune, Inc., priority 2007, published 2009).
# Molecular target: T1, HCV NS3 helicase (Hepatitis C virus genotype 1b, UniProt P26663)
# T1 construct: full-length NS3 (1-631), purified at Array BioPharma
# Assay: HCV Helicase Prompt FRET Assay (Example A)
# Assay type: biochemical
# Settings: HCV NS3 helicase; tables do not say whether Example A or Example B assay; read-out: IC50 Activity
# Method: Test compounds were diluted to 2.5 mM by adding 6 uL of a 10 mM solution of the compound to 18 uL of DMSO in a 384-well Costar polypropylene plate. Serial dilutions (2.5×) were performed in the plate using DMSO as the diluent. 1 ul of solution was transferred from each well to a new 384-well Costar polypropylene plate.
# A 2× mixture was prepared containing 100 nM helicase substrate, 500 nM helicase capture strand (CS), and 600 μM ATP by diluting stock solutions with assay buffer consisting of 25 mM MOPS, pH 7.0, and 1.5 mM MgCl2, 0.005% (v/v) Triton X-100. Stock helicase substrate was prepared by annealing a FAM-labeled oligonucleotide to a BHQ-1 labeled oligonucleotide, which were both custom synthesized and HPLC-purified at Biosearch Technologies. The FAM-labeled and BHQ-labeled oligonucleotide had the following sequences:
# The helicase capture strand was custom synthesized and purified at Integrated DNA Technologies. The helicase capture strand had the following sequence:
# The ATP solution was prepared in MilliQ water, pH adjusted to approximately 7 with NaOH. ATP powder was obtained from Sigma (A-7699). The concentration was determined via A260 (ext. coeff=15,400 M^−1cm^−1).
# 11.5 μL of assay buffer was added to all wells of the plate containing luL of test compound. 5 μL of the Compound/assay buffer mixture was added to a black polystyrene 384-well Proxiplate. A 4× Enzyme solution was prepared by diluting enzyme stock containing full-length NS3 (1-631), purified at Array BioPharma, with assay buffer. 5 μL of the 4× Enzyme solution was added to the Proxiplate and incubated for 5 minutes (for control wells lacking enzyme, assay buffer was used instead). 10 μL of 2× substrate/CS/ATP mixture was then added to all wells of Proxiplate. The final assay conditions included 50 nM Substrate, 250 nM Capture Strand, 300 μM ATP, 5 or 6 nM Enzyme, and 2% (v/v) DMSO. The reaction proceeded for 70 cycles (˜30 min.) on an Envision at room temperature. The plate was read using the Envision (top mirror=FITC; Excitation filter=FITC 485; Emission filter=FITC 535). The fluorescence intensity was recorded for a total of 30 minutes. The initial rates of the reactions was calculated and used to calculate IC50 values. The IC50 curve fitting was performed using either a 4-parameter or 5-parameter logistic equation.
# T1 sequence (P26663 1027-1657): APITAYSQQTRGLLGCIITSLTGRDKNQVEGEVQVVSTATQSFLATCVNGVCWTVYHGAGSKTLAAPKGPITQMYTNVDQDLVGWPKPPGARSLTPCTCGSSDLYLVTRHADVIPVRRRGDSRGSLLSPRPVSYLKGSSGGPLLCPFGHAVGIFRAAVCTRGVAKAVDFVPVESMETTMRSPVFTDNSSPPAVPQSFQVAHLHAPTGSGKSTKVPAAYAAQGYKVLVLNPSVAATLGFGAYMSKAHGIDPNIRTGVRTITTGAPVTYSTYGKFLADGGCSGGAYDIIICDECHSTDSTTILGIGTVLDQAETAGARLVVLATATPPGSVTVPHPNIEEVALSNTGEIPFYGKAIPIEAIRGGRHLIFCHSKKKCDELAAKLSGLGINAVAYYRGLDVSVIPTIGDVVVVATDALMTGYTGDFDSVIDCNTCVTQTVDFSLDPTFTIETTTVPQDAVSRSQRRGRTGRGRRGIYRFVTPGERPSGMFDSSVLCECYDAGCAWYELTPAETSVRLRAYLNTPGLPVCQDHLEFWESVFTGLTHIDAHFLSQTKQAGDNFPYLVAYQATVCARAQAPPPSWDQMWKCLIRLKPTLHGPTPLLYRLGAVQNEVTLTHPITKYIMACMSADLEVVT
row,IC50 [µM],SMILES
1,< 10,CN(Cc1ccccc1)c1ccc(-n2cc(CC(=O)O)c3ccccc32)cc1 [Example 162]
2,10 to 50,Cc1oncc1C(=O)Nc1ccc(-n2cc(CC(=O)O)c3ccccc32)cc1 [Example 163]
3,10 to 50,O=C(O)Cc1cn(-c2ccc(NC(=O)Cc3ccsc3)cc2)c2ccccc12 [Example 164]
4,10 to 50,CCN(Cc1ccccc1)c1ccc(-n2cc(CC(=O)OC)c3ccccc32)cc1 [Example 165]
5,< 10,CCN(Cc1ccccc1)c1ccc(-n2cc(CC(=O)O)c3ccccc32)cc1 [Example 166]
6,< 10,CC(C)N(Cc1ccccc1)c1ccc(-n2cc(CC(=O)O)c3ccccc32)cc1 [Example 167]
7,10 to 50,O=C(O)Cc1cn(-c2ccc(N(CCO)Cc3ccccc3)cc2)c2ccccc12 [Example 168]
8,< 10,O=C(O)Cc1cn(-c2ccc(N(Cc3ccccc3)Cc3ccccc3)cc2)c2ccccc12 [Example 169]
9,10 to 50,CCCN(Cc1ccccc1)c1ccc(-n2cc(CC(=O)O)c3ccccc32)cc1 [Example 170]
10,< 10,CCC(C)N(Cc1ccccc1)c1ccc(-n2cc(CC(=O)O)c3ccccc32)cc1 (centres unmarked) [Example 171]
11,< 10,CC(CO)N(Cc1ccccc1)c1ccc(-n2cc(CC(=O)O)c3ccccc32)cc1 (centres unmarked) [Example 172]
12,10 to 50,Cc1cc(NCc2ccccc2)ccc1-n1cc(CC(=O)O)c2ccccc21 [Example 173]
13,< 10,CCN(Cc1ccccc1)c1ccc(-n2cc(CC(=O)O)c3ccccc32)c(C)c1 [Example 174]
14,10 to 50,CCN(Cc1ccccc1)c1ccc(-n2nc(CC(=O)O)c3ccccc32)c(C)c1 [Example 175]
15,< 10,Cc1cccc(CN(C)c2ccc(-n3cc(CC(=O)O)c4ccccc43)cc2)c1 [Example 176]
16,< 10,COc1cccc(CN(C)c2ccc(-n3cc(CC(=O)O)c4ccccc43)cc2)c1 [Example 177]
17,< 10,CN(Cc1cccc(F)c1)c1ccc(-n2cc(CC(=O)O)c3ccccc32)cc1 [Example 178]
18,< 10,CN(Cc1cccc(Cl)c1)c1ccc(-n2cc(CC(=O)O)c3ccccc32)cc1 [Example 179]
19,10 to 50,CN(Cc1cccnc1)c1ccc(-n2cc(CC(=O)O)c3ccccc32)cc1 [Example 180]
20,< 10,Cc1ccccc1CN(C)c1ccc(-n2cc(CC(=O)O)c3ccccc32)cc1 [Example 181]

row,IC50 [µM],SMILES
1,< 10,CN(Cc1ccccc1F)c1ccc(-n2cc(CC(=O)O)c3ccccc32)cc1 [Example 182]
2,10 to 50,CCCNC(=O)Cc1cn(Cc2cccc(OCc3ccccc3)c2)c2ccc(Br)cc12 [Example 183]
3,10 to 50,O=C(Cc1cn(Cc2cccc(CCc3ccccc3)c2)c2ccc(Br)cc12)N1CCCC1 [Example 184]
4,10 to 50,O=C(Cc1cn(Cc2cccc(OCc3ccccc3)c2)c2ccc(Br)cc12)NCC1CC1 [Example 185]
5,10 to 50,CCNC(=O)Cc1cn(Cc2cccc(OCc3ccccc3)c2)c2ccc(OCc3ccccc3)cc12 [Example 186]
6,10 to 50,CC(C)CNC(=O)Cc1cn(Cc2cccc(OCc3ccccc3)c2)c2ccc(OCc3ccccc3)cc12 [Example 187]
7,10 to 50,O=C(Cc1cn(Cc2cccc(OCc3ccccc3)c2)c2ccc(OCc3ccccc3)cc12)N1CCCCC1 [Example 188]
8,10 to 50,O=C(Cc1cn(Cc2cccc(OCc3ccccc3)c2)c2ccc(OCc3ccccc3)cc12)N1CCCC1 [Example 189]
9,10 to 50,O=C(Cc1cn(Cc2cccc(OCc3ccccc3)c2)c2ccc(OCc3ccccc3)cc12)NCC1CC1 [Example 190]
10,10 to 50,CC1CCN(C(=O)Cc2cn(Cc3cccc(OCc4ccccc4)c3)c3ccc(OCc4ccccc4)cc23)C1 (centres unmarked) [Example 191]
11,< 10,CS(=O)(=O)NC(=O)Cc1cn(Cc2cccc(OCc3ccccc3)c2)c2ccc(OCc3ccccc3)cc12 [Example 192]
12,< 10,CCS(=O)(=O)NC(=O)Cc1cn(Cc2cccc(OCc3ccccc3)c2)c2ccc(OCc3ccccc3)cc12 [Example 193]
13,< 10,O=C(Cc1cn(Cc2cccc(OCc3ccccc3)c2)c2ccc(OCc3ccccc3)cc12)NS(=O)(=O)C1CC1 [Example 194]
14,< 10,O=C(Cc1cn(Cc2cccc(OCc3ccccc3)c2)c2ccc(OCc3ccccc3)cc12)NS(=O)(=O)c1ccccc1 [Example 195]
15,10 to 50,O=C(NS(=O)(=O)C1CC1)c1cn(Cc2csc3ccc(Cl)cc23)c2ccccc12 [Example 196]
16,10 to 50,CCS(=O)(=O)NC(=O)Cc1cn(Cc2csc3ccc(Cl)cc23)c2ccccc12 [Example 197]
17,10 to 50,O=C(Cc1cn(Cc2csc3ccc(Cl)cc23)c2ccccc12)NS(=O)(=O)C1CC1 [Example 198]
18,10 to 50,O=C(Cc1cn(Cc2csc3ccc(Cl)cc23)c2ccccc12)NS(=O)(=O)c1ccccc1 [Example 199]
19,10 to 50,NC(=O)Cc1c(-c2ccccc2)n(Cc2csc3ccc(Cl)cc23)c2ccccc12 [Example 200]
20,< 10,CSc1ccc2c(c1)c(CC(N)=O)cn2Cc1cccc(OCc2ccccc2)c1 [Example 201]

row,IC50 [µM],SMILES
1,< 10,Clc1ccc2scc(Cn3cc(Cc4nnn[nH]4)c4ccccc43)c2c1 [Example 202]
2,< 10,c1ccc(-c2ccccc2Cn2cc(Cc3nnn[nH]3)c3ccccc32)cc1 [Example 203]
3,< 10,Clc1ccc2scc(Cn3c(-c4ccccc4)c(Cc4nnn[nH]4)c4ccccc43)c2c1 [Example 204]
4,10 to 50,O=C(Cn1cc(Cc2nnn[nH]2)c2ccccc21)N1CCN(Cc2ccccc2)CC1 [Example 205]
5,10 to 50,O=C(Cn1cc(Cc2nnn[nH]2)c2ccccc21)N1CCC(Cc2ccccc2)CC1 [Example 206]
6,< 10,O=C(NCc1ccc2c(c1)c(Cc1nn[nH]n1)cn2Cc1csc2ccc(Cl)cc12)OCc1ccccc1 [Example 207]
7,< 10,CC(C)(C)OC(=O)NCc1ccc2c(c1)c(Cc1nn[nH]n1)cn2Cc1csc2ccc(Cl)cc12 [Example 208]
8,10 to 50,N#CCc1cn(Cc2csc3ccc(Cl)cc23)c2ccc(CNS(=O)(=O)c3ccccc3)cc12 [Example 209]
9,< 10,O=S(=O)(NCc1ccc2c(c1)c(Cc1nn[nH]n1)cn2Cc1csc2ccc(Cl)cc12)c1ccccc1 [Example 210]
10,10 to 50,N#CCc1cn(Cc2csc3ccc(Cl)cc23)c2ccc(CNC(=O)c3ccccc3)cc12 [Example 211]
11,10 to 50,Oc1nnc(Cc2cn(Cc3csc4ccc(Cl)cc34)c3ccccc23)[nH]1 [Example 212]
12,10 to 50,Oc1cc(Cc2cn(Cc3csc4ccc(Cl)cc34)c3ccccc23)n[nH]1 [Example 213]
13,10 to 50,O=C(Cn1cc(Cc2nnn[nH]2)c2ccccc21)c1ccccc1 [Example 214]
14,10 to 50,CC(c1nnn[nH]1)c1cn(Cc2csc3ccc(Cl)cc23)c2ccccc12 (centres unmarked) [Example 215]
15,10 to 50,CC(C)(c1nnn[nH]1)c1cn(Cc2csc3ccc(Cl)cc23)c2ccccc12 [Example 216]
16,< 10,O=C(O)Cc1c(C(=O)c2ccccc2)n(Cc2csc3ccc(Cl)cc23)c2ccccc12 [Example 217]
17,< 10,O=C(O)Cc1c(C(=O)c2ccc(-c3ccccc3)cc2)n(CC2CC2)c2ccccc12 [Example 218]
18,< 10,O=C(O)Cc1c(C(=O)c2ccc(-c3ccccc3)cc2)n(Cc2ccccc2)c2ccccc12 [Example 219]
19,< 10,O=C(O)Cc1c(C(=O)c2ccc(-c3ccccc3)cc2)n(Cc2csc3ccc(Cl)cc23)c2ccccc12 [Example 220]
